Assay results as given in US20070232590A1, “3-Cylcoalkylbenzazepines as Histamine H3 Antagonists” (GLAXO GROUP LIMITED, priority 2004, published 2007).

Assays:
histamine H3 receptor [1] = biological target: T1, histamine H3 receptor (Homo sapiens, UniProt Q9Y5N1); assay: Histamine H3 functional antagonist assay (method B), [35S]-GTPγS SPA on membranes; assay type: biochemical; details: functional pKi, membrane from cultured H3 cells (CHO K1), histamine at EC80, averages of a number of experiments, read-out: Antagonism (fpKi) (converted)
T1 construct: expressed in transfected cells; host or cells: CHO K1 cells carrying pSwitch, transfected with pGeneH3 and induced with mifepristone; clone 3H3; membrane preparation
Text: (§1) A membrane preparation containing histamine H3 receptors may be prepared in accordance with the following procedures:
(§2) (i) Generation of Histamine H3 Cell Line
DNA encoding the human histamine H3 gene (Huvar, A. et al. (1999) Mol. Pharmacol. 55(6), 1101-1107) was cloned into a holding vector, pCDNA3.1 TOPO (InVitrogen) and its cDNA was isolated from this vector by restriction digestion of plasmid DNA with the enzymes BamH1 and Not-1 and ligated into the inducible expression vector pGene (InVitrogen) digested with the same enzymes. The GeneSwitch™ system (a system where in transgene expression is switched off in the absence of an inducer and switched on in the presence of an inducer) was performed as described in U.S. Pat. Nos. 5,364,791; 5,874,534; and 5,935,934. Ligated DNA was transformed into competent DH5α E. coli host bacterial cells and plated onto Luria Broth (LB) agar containing Zeocin™ (an antibiotic which allows the selection of cells expressing the sh ble gene which is present on pGene and pSwitch) at 50 μg ml^−1. Colonies containing the re-ligated plasmid were identified by restriction analysis. DNA for transfection into mammalian cells was prepared from 250 ml cultures of the host bacterium containing the pGeneH3 plasmid and isolated using a DNA preparation kit (Qiagen Midi-Prep) as per manufacturers guidelines (Qiagen). […]
10-14 days post selection 10 nM Mifepristone (InVitrogen), was added to the culture medium to induce the expression of the receptor. […] Receptor bound antibody was detected by incubation of the cells for 60 minutes on ice with a goat anti rabbit antibody, conjugated with Alexa 488 fluorescence marker (Molecular Probes). Following two further washes with Sorting Medium, cells were filtered through a 50 μm Filcon™ (BD Biosciences) and then analysed on a FACS Vantage SE Flow Cytometer fitted with an Automatic Cell Deposition Unit. […]

histamine H3 receptor [2] = biological target: T1, histamine H3 receptor; assay: Histamine H3 functional antagonist assay (method A), [35S]-GTPγS SPA on membranes; assay type: biochemical; details: functional pKi, membrane from cultured H3 cells (CHO K1), histamine at EC80, averages of a number of experiments, read-out: Antagonism (fpKi) (converted)
Text: as §1, §2
DNA encoding the human histamine H3 gene (Huvar, A. et al. (1999) Mol. Pharmacol. 55(6), 1101-1107) was cloned into a holding vector, pCDNA3.1 TOPO (InVitrogen) and its cDNA was isolated from this vector by restriction digestion of plasmid DNA with the enzymes BamH1 and Not-1 and ligated into the inducible expression vector pGene (InVitrogen) digested with the same enzymes. The GeneSwitch™ system (a system where in transgene expression is switched off in the absence of an inducer and switched on in the presence of an inducer) was performed as described in U.S. Pat. Nos. 5,364,791; 5,874,534; and 5,935,934. Ligated DNA was transformed into competent DH5α E. coli host bacterial cells and plated onto Luria Broth (LB) agar containing Zeocin™ (an antibiotic which allows the selection of cells expressing the sh ble gene which is present on pGene and pSwitch) at 50 μg ml^−1. Colonies containing the re-ligated plasmid were identified by restriction analysis. DNA for transfection into mammalian cells was prepared from 250 ml cultures of the host bacterium containing the pGeneH3 plasmid and isolated using a DNA preparation kit (Qiagen Midi-Prep) as per manufacturers guidelines (Qiagen).
CHO K1 cells previously transfected with the pSwitch regulatory plasmid (InVitrogen) were seeded at 2×10e6 cells per T75 flask in Complete Medium, containing Hams F12 (GIBCOBRL, Life Technologies) medium supplemented with 10% v/v dialysed foetal bovine serum, L-glutamine, and hygromycin (100 μg ml^−1), 24 hours prior to use. Plasmid DNA was transfected into the cells using Lipofectamine plus according to the manufacturers guidelines (InVitrogen). 48 hours post transfection cells were placed into complete medium supplemented with 500 μg ml^−1 Zeocin™.
10-14 days post selection 10 nM Mifepristone (InVitrogen), was added to the culture medium to induce the expression of the receptor. 18 hours post induction cells were detached from the flask using ethylenediamine tetra-acetic acid (EDTA; 1:5000; InVitrogen), following several washes with phosphate buffered saline pH 7.4 and resuspended in Sorting Medium containing Minimum Essential Medium (MEM), without phenol red, and supplemented with Earles salts and 3% Foetal Clone II (Hyclone). Approximately 1×10e7 cells were examined for receptor expression by staining with a rabbit polyclonal antibody, 4a, raised against the N-terminal domain of the histamine H3 receptor, incubated on ice for 60 minutes, followed by two washes in sorting medium. Receptor bound antibody was detected by incubation of the cells for 60 minutes on ice with a goat anti rabbit antibody, conjugated with Alexa 488 fluorescence marker (Molecular Probes). Following two further washes with Sorting Medium, cells were filtered through a 50 μm Filcon™ (BD Biosciences) and then analysed on a FACS Vantage SE Flow Cytometer fitted with an Automatic Cell Deposition Unit. Control cells were non-induced cells treated in a similar manner. Positively stained cells were sorted as single cells into 96-well plates, containing Complete Medium containing 500 μg ml^−1 Zeocin™ and allowed to expand before reanalysis for receptor expression via antibody and ligand binding studies. One clone, 3H3, was selected for membrane preparation.
(ii) Membrane Preparation from Cultured Cells
All steps of the protocol are carried out at 4° C. and with pre-cooled reagents. The cell pellet is resuspended in 10 volumes of homogenisation buffer (50 mM N-2-hydroxyethylpiperazine-N′-2-ethanesulfonic acid (HEPES), 1 mM ethylenediamine tetra-acetic acid (EDTA), pH 7.4 with KOH, supplemented with 10e-6M leupeptin (acetyl-leucyl-leucyl-arginal; Sigma L2884), 25 μg/ml bacitracin (Sigma B0125), 1 mM phenylmethylsulfonyl fluoride (PMSF) and 2×10 e-6M pepstain A (Sigma)). […]

T1 sequence (Q9Y5N1 whole entry): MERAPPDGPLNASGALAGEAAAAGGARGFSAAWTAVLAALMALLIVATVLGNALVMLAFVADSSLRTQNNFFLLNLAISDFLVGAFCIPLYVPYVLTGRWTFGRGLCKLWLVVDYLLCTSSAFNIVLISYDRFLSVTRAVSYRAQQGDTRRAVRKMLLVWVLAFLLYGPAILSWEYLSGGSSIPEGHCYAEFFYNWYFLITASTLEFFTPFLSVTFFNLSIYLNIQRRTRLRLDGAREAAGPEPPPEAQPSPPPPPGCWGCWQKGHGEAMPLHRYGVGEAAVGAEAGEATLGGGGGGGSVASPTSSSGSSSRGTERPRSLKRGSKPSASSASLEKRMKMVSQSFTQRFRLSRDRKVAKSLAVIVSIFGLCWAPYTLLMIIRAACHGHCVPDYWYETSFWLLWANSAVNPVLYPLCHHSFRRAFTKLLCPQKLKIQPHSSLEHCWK

Row | Structure (SMILES) | Ki (histamine H3 receptor [1]) [nM] | Ki (histamine H3 receptor [2]) [nM]
1 | O=C1CCCN1c1ccc(Oc2ccc3c(c2)CCN(C2CCCC2)CC3)nc1 [Compound 1, 1-{6-[(3-Cyclopentyl-2,3,4,5-tetrahydro-1H-3-benzazepin-7-yl)oxy]-3-pyridinyl}-2-pyrrolidinone] | 0.158 | 0.0794
2 | O=C1CCCN1c1cnc(Oc2ccc3c(c2)CCN(C2CCCC2)CC3)cn1 [Compound 2, 1-{5-[(3-Cyclopentyl-2,3,4,5-tetrahydro-1H-3-benzazepin-7-yl)oxy]-2-pyrazinyl}-2-pyrrolidinone] | 0.158 | 0.0794
3 | CN1CCN(c2ccc(Oc3ccc4c(c3)CCN(C3CCC3)CC4)c(F)c2)C1=O [Compound 3, 1-{4-[(3-Cyclobutyl-2,3,4,5-tetrahydro-1H-3-benzazepin-7-yl)oxy]-3-fluorophenyl}-3-methyl-2-imidazolidinone] | 0.158 | 0.0501
4 | O=C1CCCN1c1ccc(Oc2ccc3c(c2)CCN(C2CCC2)CC3)cc1 [Compound 4, 1-{4-[(3-Cyclobutyl-2,3,4,5-tetrahydro-1H-3-benzazepin-7-yl)oxy]phenyl}-2-pyrrolidinone] | – | 0.158
5 | O=C1OCCN1c1ccc(Oc2ccc3c(c2)CCN(C2CCCC2)CC3)nn1 [Compound 5, 3-{6-[(3-Cyclopentyl-2,3,4,5-tetrahydro-1H-3-benzazepin-7-yl)oxy]-3-pyridazinyl}-1,3-oxazolidin-2-one] | – | 0.0501
6 | O=C1CCCN1c1ccc(Oc2ccc3c(c2)CCN(C2CCCC2)CC3)nn1 [Compound 6, 1-{6-[(3-Cyclopentyl-2,3,4,5-tetrahydro-1H-3-benzazepin-7-yl)oxy]-3-pyridazinyl}-2-pyrrolidinone] | – | 0.126
7 | Cc1noc(-c2cnc(Oc3ccc4c(c3)CCN(C3CCCC3)CC4)cn2)n1 [Compound 7, 3-Cyclopentyl-7-{[5-(3-methyl-1,2,4-oxadiazol-5-yl)-2-pyrazinyl]oxy}-2,3,4,5-tetrahydro-1H-3-benzazepine] | – | 0.126
8 | Cc1noc(-c2ccc(Oc3ccc4c(c3)CCN(C3CCC3)CC4)nc2)n1 [Compound 8, 3-Cyclobutyl-7-{[5-(3-methyl-1,2,4-oxadiazol-5-yl)-2-pyridinyl]oxy}-2,3,4,5-tetrahydro-1H-3-benzazepine] | – | 0.1
9 | Cc1noc(-c2ccc(Oc3ccc4c(c3)CCN(C3CCCC3)CC4)nc2)n1 [Compound 9, 3-Cyclopentyl-7-{[5-(3-methyl-1,2,4-oxadiazol-5-yl)-2-pyridinyl]oxy}-2,3,4,5-tetrahydro-1H-3-benzazepine] | – | 0.251
